What was measured:
[1] = Hydrodynamic size, polydispersity index and zeta potential of dendrimer, lipid and mRNA complexes; assay type: physicochemical; settings: DOTMA/DOPE w/w 10:1 to mRNA; for Hydrodynamic size: dendrimer, lipid and mRNA complexes
Method: The hydrodynamic size, polydispersity index and Zeta potential was determined for a set of the dendrimers disclosed in Tables 1 and 2.

HeLa cells = assay: mRNA (eGFP) transfection with peptide dendrimers and DOTMA/DOPE in full growth medium; assay type: cell-based, human; settings: HeLa; full growth medium; DOTMA/DOPE w/w 10:1 to mRNA; relative to G1,2-RL, 3-LR
Method: FIG. 28. mRNA transfection of the peptide dendrimers with lipid system in vitro. […] The mRNA used expressed an eGFP reporter gene. Following a 24 hour transfection, the cells were harvested to assay the eGFP expression. The eGFP expression was normalised with the total amount of protein of each transfection. The gene expression level was calculated by normalising the transfection value of the G1,2-RL, 3-LR, DOTMA/DOPE & mRNA treated cells. 1st, 2nd and 3rd generation dendrimers with varying cores and 1st, 2nd, and 3rd generation peptide motifs can transfect cells with mRNA effectively under the tested conditions.
FIG. 29. mRNA transfection of the peptide dendrimers with lipid system in vitro. HeLa cells were transfected with mRNA alone or mRNA with peptide dendrimers and DOTMA/DOPE (w/w=10:1 to mRNA). The N:P ratio of G1,2-RL,3-LR was at 0.16:1 while the N:P ratios of all other dendrimers at 8:1. The mRNA used expressed an eGFP reporter gene. Following a 24 hour transfection, the cells were harvested to assay the eGFP expression. The eGFP expression was normalised with the total amount of protein of each transfection. The gene expression level was calculated by normalising the transfection value of the G1,2-RL, 3-LR, DOTMA/DOPE & mRNA treated cells. 1st, 2nd and 3rd generation dendrimers with varying cores and 1st, 2nd, and 3rd generation peptide motifs can transfect cells with mRNA effectively under the tested conditions.
The effect on the number of generations of dendrimers on mRNA delivery was studied by transfecting HeLa cells in full growth medium conditions.

Substance | Polydispersity Index (PDI) ([1]; N:P 0.16:1) | Zeta Potential ([1]; N:P 0.16:1) [mV] | Polydispersity Index (PDI) ([1]; N:P 8:1) | Zeta Potential ([1]; N:P 8:1) [mV] | Hydrodynamic size ([1]; N:P 0.16:1) [nm] | Hydrodynamic size ([1]; N:P 8:1) [nm] | mRNA transfection efficiency (eGFP), in words (HeLa cells)
(BR)8(KRB)4(KRX)2KGSC-NH2 [G1-RX, 2-RB, 3-BR] | 0.108 | 41 | 0.403 | 56 | 130 | 70 | 
(FR)8(KRQ)4(KRW)2KGSC-NH2 [G1-RW, 2-RQ, 3-FR] | 0.146 | 37 | 0.452 | 51 | 133 | 105 | 
(HK)8(KKH)4(KKL)2KGSC-NH2 [G1-KL, 2-KH, 3-HK] | 0.237 | 35 | 0.126 | 49 | 131 | 103 | 
(LR)2KRHC-NH2 [RHCG1-LR] | 0.107 | 40 | 0.577 | 35 | 129 | 326 | can transfect cells effectively
(LR)8(DabRL)4(DabRL)2DabGSC-NH2 [DabG1,2-RL, 3-LR] | 0.117 | 34 | 0.286 | 57 | 124 | 78 | 
(LR)8(KR)4(KRLR)2KRHC-NH2 [RHCG1-RLR, 2-R, 3-LR] | 0.136 | 41 | 0.439 | 59 | 121 | 75 | 
(LR)8(KR)4(KRLRL)2KRHC-NH2 [RHCG1-RLRL, 2-R, 3-LR] | 0.131 | 43 | 0.37 | 56 | 135 | 78 | 
(LR)8(KRL)4(KRE)2KGSC-NH2 [G1-RE, 2-RL, 3-LR] | 0.096 | 45 | 0.158 | 53 | 134 | 96 | 
(LR)8(KRL)4(KRL)2KGSCRHCRFWRYM-NH2 [LinearG1,2-RL, 3-LR] | 0.143 | 42 | 0.289 | 54 | 118 | 62 | transfection efficiency was not affected
(LRLR)2KGSC-NH2 [G1-LRLR] | 0.264 | 40 | 0.581 | 49 | 122 | 250 | 
(LRLR)4(KLRLR)2KGSC-NH2 [G1,2-LRLR] | 0.181 | 41 | 0.189 | 53 | 130 | 92 | 
(LRLR)8(KLRLR)4(KLRLR)2KGSC-NH2 [G1,2,3-LRLR] | 0.133 | 45 | 0.287 | 50 | 130 | 80 | 
(MR)8(KRC)4(KRC)2KGSC-NH2 [G1-RC, 2-RC, 3-MR] | 0.148 | 43 | 0.19 | 56 | 121 | 87 | 
(QR)8(KRT)4(KRY)2KGSC-NH2 [G1-RY, 2-RT, 3-QR] | 0.16 | 42 | 0.178 | 52 | 126 | 95 | 
(R)8(KRL)4(KRLR)2KRHC-NH2 [RHCG1-RLR, 2-RL, 3-R] | 0.219 | 36 | 0.429 | 59 | 119 | 83 | 
(RL)8(KLR)4(KLR)2KGSC-NH2 [G1,2-LR,3-RL] | 0.144 | 32 | 0.242 | 54 | 137 | 89 | 
(RL)8(KRL)4(KLR)2KGSC-NH2 [G1-LR,2,3-RL] | 0.136 | 41 | 0.417 | 53 | 132 | 80 | 
(RLR)2KRHC-NH2 [RHCG1-RLR] | 0.363 | 41 | 0.766 |  | 105 | 183 | 
(WR)8(KRM)4(KRF)2KGSC-NH2 [G1-RF, 2-RM, 3-WR] | 0.125 | 41 | 0.277 | 51 | 142 | 80 | 
(YR)8(KRT)4(KRQ)2KGSC-NH2 [G1-RQ, 2-RT, 3-YR] | 0.135 | 41 | 0.409 | 54 | 130 | 100 | 
(lR)8(KrL)4(kRl)2KGSC-NH2 [G1-Rl, 2-rL, 3-lR] | 0.22 | 42 | 0.241 | 56 | 135 | 74 | 
(lr)8(Krl)4(Krl)2Kgsc-NH2 [LK-G1,2-rl, 3-lr] | 0.16 | 45 | 0.251 | 53 | 132 | 74 | 
(lr)8(krl)4(krl)2kgsc-NH2 [D-G1,2-rl, 3-lr] | 0.148 | 43 | 0.246 | 53 | 134 | 73 | 

Further lines, with some results ahead:

Polydispersity Index (PDI) ([1]; N:P 0.16:1) | Zeta Potential ([1]; N:P 0.16:1) [mV] | Polydispersity Index (PDI) ([1]; N:P 8:1) | Zeta Potential ([1]; N:P 8:1) [mV] | Hydrodynamic size ([1]; N:P 0.16:1) [nm] | Hydrodynamic size ([1]; N:P 8:1) [nm] | Substance | mRNA transfection efficiency (eGFP), in words (HeLa cells)
0.136 | 47 | 0.184 | 51 | 125 | 76 | (LR)8(KRL)4(KRL)2KA-NH2 [KAG1,2-RL, 3-LR] | 
0.152 | 39 | 0.401 | 55 | 120 | 91 | (LR)8(KRL)4(KRL)2KRFW-NH2 [RFWG1,2-RL, 3-LR] | 
0.11 | 44 | 0.363 | 50 | 134 | 58 | (LR)8(KRL)4(KRL)2KRHC-NH2 [RHCG1,2-RL,3-LR] | 
0.137 | 43 | 0.257 | 56 | 133 | 68 | (LR)8(KRL)4(KRL)2KRYM-NH2 [RYMG1,2-RL, 3-LR] | 
0.116 | 35 | 0.213 | 56 | 117 | 73 | (LR)8(KRL)4(KRL)2KYM-NH2 [YMG1,2-RL, 3-LR] | 
0.173 | 43 | 0.396 | 62 | 125 | 70 | (R)8(KR)4(KR)2KRHC-NH2 [RHCG1,2,3-R] | 
0.154 | 39 | 0.214 |  | 116 | 83 | (RLR)4(KRLR)2KRHC-NH2 [RHCG1,2-RLR] | 
0.154 | 42 | 0.299 | 56 | 130 | 73 | (RLR)8(KRLR)4(KRLR)2KRHC-NH2 [RHCG1,2,3-RLR] | 
